In patent publication US9938299B2, “Glycosidase inhibitors and uses thereof” (MERCK SHARP & DOHME CORP., priority 2012, dated 2018):

These molecules were tested against T1, human O-GlcNAcase (Homo sapiens, UniProt O60502) (assay: Determination of KI values for inhibition of O-GlcNAcase activity (fluorogenic 4-methylumbelliferyl GlcNAc substrate)). Conditions: not given.
T1 sequence (O60502 1-916): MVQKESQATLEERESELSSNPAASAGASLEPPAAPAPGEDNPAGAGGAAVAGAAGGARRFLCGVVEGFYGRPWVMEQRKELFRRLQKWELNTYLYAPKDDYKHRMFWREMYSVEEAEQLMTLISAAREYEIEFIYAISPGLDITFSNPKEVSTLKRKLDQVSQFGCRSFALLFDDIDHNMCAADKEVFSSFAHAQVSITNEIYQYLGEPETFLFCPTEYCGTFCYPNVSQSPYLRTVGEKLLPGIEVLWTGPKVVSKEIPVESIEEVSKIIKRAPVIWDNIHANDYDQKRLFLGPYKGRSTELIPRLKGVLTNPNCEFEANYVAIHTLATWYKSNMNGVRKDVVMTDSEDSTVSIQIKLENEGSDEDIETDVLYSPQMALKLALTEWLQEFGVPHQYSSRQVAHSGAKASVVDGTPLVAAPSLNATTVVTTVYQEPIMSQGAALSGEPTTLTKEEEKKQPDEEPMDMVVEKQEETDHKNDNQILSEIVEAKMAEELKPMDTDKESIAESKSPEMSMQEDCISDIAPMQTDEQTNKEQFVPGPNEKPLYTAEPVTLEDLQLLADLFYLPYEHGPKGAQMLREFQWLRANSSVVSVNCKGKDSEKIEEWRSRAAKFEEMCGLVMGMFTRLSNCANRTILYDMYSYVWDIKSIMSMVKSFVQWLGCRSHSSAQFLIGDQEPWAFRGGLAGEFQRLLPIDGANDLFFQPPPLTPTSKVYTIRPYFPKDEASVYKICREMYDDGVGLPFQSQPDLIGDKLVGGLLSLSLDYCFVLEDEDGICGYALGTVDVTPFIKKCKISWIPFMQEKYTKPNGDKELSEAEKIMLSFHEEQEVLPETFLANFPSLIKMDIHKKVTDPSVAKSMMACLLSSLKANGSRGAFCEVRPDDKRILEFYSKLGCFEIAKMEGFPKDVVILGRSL
Assay type: biochemical
Experimental: Assay for Determination of […] for Inhibition of O-GlcNAcase Activity
Experimental procedure for kinetic analyses: Enzymatic reactions were carried out in a reaction containing 50 mM NaH2PO4, 100 mM NaCl and 0.1% BSA (pH 7.0) using 2 mM 4-Methylumbelliferyl N-acetyl-β-D-glucosaminide dihydrate (Sigma M2133) dissolved in ddH2O, as a substrate. The amount of purified human O-GlcNAcase enzyme used in the reaction was 0.7 nM. Test compound of varying concentrations was added to the enzyme prior to initiation of the reaction. The reaction was performed at room temperature in a 96-well plate and was initiated with the addition of substrate. […] The slope of product production was determined for each concentration of compound tested and plotted, using standard curve fitting algorithms for sigmoidal dose response curves. The values for a four parameter logistic curve fit of the data were determined.

Row | Structure (SMILES) | Ki
1 | CNC1=N[C@@H]2[C@@H](O)[C@H](O)C(C(C)=O)O[C@@H]2S1 (stereo partly drawn) [Example 38, 1-((3aR,6S,7R,7aR)-6,7-dihydroxy-2-(methylamino)-5,6,7,7a-tetrahydro-3aH-pyrano[3,2-d]thiazol-5-yl)ethanone] | 79 nM
2 | CCNC1=N[C@@H]2[C@@H](O)[C@H](O)[C@@H](C(=O)N(C)OC)O[C@@H]2S1 [Example 47, (3aR,5S,6S,7R,7aR)-2-(ethylamino)-6,7-dihydroxy-N-methoxy-N-methyl-5,6,7,7a-tetrahydro-3aH-pyrano[3,2-d]thiazole-5-carboxamide] | 3320 nM
3 | CCNC1=N[C@@H]2[C@@H](O)[C@H](O)[C@@H](C(=O)N(C)C)O[C@@H]2S1 [Example 51, (3aR,5S,6S,7R,7aR)-2-(ethylamino)-6,7-dihydroxy-N,N-dimethyl-5,6,7,7a-tetrahydro-3aH-pyrano[3,2-d]thiazole-5-carboxamide] | 1880 nM
4 | CCNC1=N[C@@H]2[C@@H](O)[C@H](O)[C@@H](C(=O)O)O[C@@H]2S1 [Example 52, (3aR,5S,6S,7R,7aR)-2-(ethylamino)-6,7-dihydroxy-5,6,7,7a-tetrahydro-3aH-pyrano[3,2-d]thiazole-5-carboxylic acid] | 27 nM
5 | CCNC1=N[C@@H]2[C@@H](O)[C@H](O)[C@@H](C(=O)OC)O[C@@H]2S1 [Example 53, (3aR,5S,6S,7R,7aR)-N-ethyl-6,7-clihydroxy-5-(methoxycarbonyl)-5,6,7,7a-tetrahydro-3aH-pyrano[3,2-d]thiazol-2-aminium chloride] | 480 nM

Same assay, conditions: purified human O-GlcNAcase 0.7 nM, 2 mM substrate, pH 7.0, room temperature; Cheng-Prusoff; read-out: Ki

Row | Structure (SMILES) | Ki
6 | CN(C)C1=N[C@@H]2[C@@H](O)[C@H](O)[C@@H]([C@@H](O)CCc3ccccc3)O[C@@H]2S1 [Example 24, (3aR,5R,6S,7R,7aR)-2-(dimethylamino)-5-((S)-1-hydroxy-3-phenylpropyl)-5,6,7,7a-tetrahydro-3aH-pyrano[3,2-d]thiazole-6,7-diol] | 15 nM
7 | CN(C)C1=N[C@@H]2[C@@H](O)[C@H](O)[C@@H]([C@](O)(Cc3ccccc3)C(F)(F)F)O[C@@H]2S1 [Example 25, (3aR,5S,6S,7R,7aR)-2-(dimethylamino)-5-((R)-1,1,1-trifluoro-2-hydroxy-3-phenylpropan-2-yl)-5,6,7,7a-tetrahydro-3aH-pyrano[3,2-d]thiazole-6,7-diol] | 338 nM
8 | CN(C)C1=N[C@@H]2[C@@H](O)[C@H](O)[C@@H]([C@@](O)(Cc3ccccc3)C(F)(F)F)O[C@@H]2S1 [Example 26, (3aR,5S,6S,7R,7aR)-2-(dimethylamino)-5-(1,1,1-trifluoro-2-hydroxy-3-phenylpropan-2-yl)-5,6,7,7a-tetrahydro-3aH-pyrano[3,2-d]thiazole-6,7-diol] | 66 nM
9 | CNC1=N[C@@H]2[C@@H](O)[C@H](O)[C@@H](CC#N)O[C@@H]2S1 [Example 31, 2-((3aR,5R,6S,7R,7aR)-6,7-dihydroxy-2-(methylamino)-5,6,7,7a-tetrahydro-3aH-pyrano[3,2-d]thiazol-5-yl)acetonitrile] | 1.08 nM
10 | C=CCNC1=N[C@@H]2[C@@H](O)[C@H](O)[C@@H](CC#N)O[C@@H]2S1 [Example 32, 2-((3aR,5R,6S,7R,7aR)-2-(allylamino)-6,7-dihydroxy-5,6,7,7a-tetrahydro-3aH-pyrano[3,2-d]thiazol-5-yl)acetonitrile] | 130 nM
11 | CNC1=N[C@@H]2[C@@H](O)[C@H](O)[C@@H](CCN)O[C@@H]2S1 [Example 40, (3aR,5R,6S,7R,7aR)-5-(2-aminoethyl)-2-(methylamino)-5,6,7,7a-tetrahydro-3aH-pyrano[3,2-d]thiazole-6,7-diol] | 24 nM
12 | CNCC[C@H]1O[C@@H]2SC(NC)=N[C@@H]2[C@@H](O)[C@@H]1O [Example 41, (3aR,5R,6S,7R,7aR)-2-(methylamino)-5-(2-(methylamino)ethyl)-5,6,7,7a-tetrahydro-3aH-pyrano[3,2-d]thiazole-6,7-diol] | 8.4 nM
13 | CCNC1=N[C@@H]2[C@@H](O)[C@H](O)[C@@H](C(=O)NC)O[C@@H]2S1 [Example 48, (3aR,5S,6S,7R,7aR)-2-(ethylamino)-6,7-dihydroxy-N-methyl-5,6,7,7a-tetrahydro-3aH-pyrano[3,2-d]thiazole-5-carboxamide] | 370 nM
14 | CCNC1=N[C@@H]2[C@@H](O)[C@H](O)[C@@H](C(=O)NC(C)C)O[C@@H]2S1 [Example 49, (3aR,5S,6S,7R,7aR)-2-(ethylamino)-6,7-dihydroxy-N-isopropyl-5,6,7,7a-tetrahydro-3aH-pyrano[3,2-d]thiazole-5-carboxamide] | 142 nM

Further lines, results first:

Row | Ki | Structure (SMILES)
15 | 2880 nM | CCNC(=O)[C@H]1O[C@@H]2SC(NCC)=N[C@@H]2[C@@H](O)[C@@H]1O [Example 50, (3aR,5S,6S,7R,7aR)-N-ethyl-2-(ethylamino)-6,7-dihydroxy-5,6,7,7a-tetrahydro-3aH-pyrano[3,2-d]thiazole-5-carboxamide]
16 | 2500 nM | CCN(CC)C(=O)[C@H]1O[C@@H]2SC(NC)=N[C@@H]2[C@@H](O)[C@@H]1O [Example 45, (3aR,5S,6S,7R,7aR)-N,N-diethyl-6,7-dihydroxy-2-(methylamino)-5,6,7,7a-tetrahydro-3aH-pyrano[3,2-d]thiazole-5-carboxamide]
17 | 1960 nM | CCNC1=N[C@@H]2[C@@H](O)[C@H](O)[C@@H](C(=O)NC3CC3)O[C@@H]2S1 [Example 46, (3aR,5S,6S,7R,7aR)-N-cyclopropyl-2-(ethylamino)-6,7-dihydroxy-5,6,7,7a-tetrahydro-3aH-pyrano[3,2-d]thiazole-5-carboxamide]
18 | 1430 nM | CCNC(=O)[C@H]1O[C@@H]2SC(NC)=N[C@@H]2[C@@H](O)[C@@H]1O [Example 44, (3aR,5S,6S,7R,7aR)-N-ethy1-6,7-dihydroxy-2-(methylamino)-5,6,7,7a-tetrahydro-3aH-pyrano[3,2-d]thiazole-5-carboxamide]
19 | 987 nM | CNC1=N[C@@H]2[C@@H](O)[C@H](O)[C@@H](C(=O)NC3CC3)O[C@@H]2S1 [Example 42, (3aR,5S,6S,7R,7aR)-N-cyclopropyl-6,7-dihydroxy-2-(methylamino)-5,6,7,7a-tetrahydro-3aH-pyrano[3,2-d]thiazole-5-carboxamide]
20 | 845 nM | CNC(=O)[C@H]1O[C@@H]2SC(NC)=N[C@@H]2[C@@H](O)[C@@H]1O [Example 35, (3aR,5 S,6S,7R,7aR)-6,7-dihydroxy-N-methyl-2-(methylamino)-5,6,7,7a-tetrahydro-3aH-pyrano[3,2-d]thiazole-5-carboxamide]
21 | 588 nM | CNC1=N[C@@H]2[C@@H](O)[C@H](O)[C@@H](C(=O)NC(C)C)O[C@@H]2S1 [Example 43, (3aR,5S,6S,7R,7aR)-6,7-dihydroxy-N-isopropyl-2-(methylamino)-5,6,7,7a-tetrahydro-3aH-pyrano[3,2-d]thiazole-5-carboxamide]
22 | 311 nM | CN(C)C(=O)CC[C@H]1O[C@@H]2SC(N(C)C)=N[C@@H]2[C@@H](O)[C@@H]1O [Example 33, 3-((3aR,5R,6S,7R,7aR)-2-(dimethylamino)-6,7-dihydroxy-5,6,7,7a-tetrahydro-3aH-pyrano[3,2-d]thiazol-5-yl)-N,N-dimethylpropanamide]
23 | 142 nM | COc1ccc(CC[C@](O)([C@H]2O[C@@H]3SC(N(C)C)=N[C@@H]3[C@@H](O)[C@@H]2O)C(F)(F)F)cc1 [Example 30, (3aR,5S,6S,7R,7aR)-2-(dimethylamino)-5-(1,1,1-trifluoro-2-hydroxy-4-(4-methoxyphenyl)butan-2-yl)-5,6,7,7a-tetrahydro-3aH-pyrano[3,2-d]thiazole-6,7-diol]
24 | 68 nM | CNC1=N[C@@H]2[C@@H](O)[C@H](O)[C@@H](C(=O)OC)O[C@@H]2S1 [Example 37, (3aR,5S,6S,7R,7aR)-methyl 6,7-dihydroxy-2-(methylamino)-5,6,7,7a-tetrahydro-3aH-pyrano[3,2-d]-thiazole-5-carboxylate]
25 | 5.5 nM | CNC1=N[C@@H]2[C@@H](O)[C@H](O)[C@@H](C(=O)O)O[C@@H]2S1 [Example 36, (3aR,5S,6S,7R,7aR)-6,7-dihydroxy-2-(methylamino)-5,6,7,7a-tetrahydro-3aH-pyrano[3,2-d]thiazole-5-carboxylic acid]
26 | 0.075 nM | CNC1=N[C@@H]2[C@@H](O)[C@H](O)[C@@H](CCl)O[C@@H]2S1 [Example 39, (3aR,5 S,6S,7R,7aR)-5-(chloromethyl)-2-(methylamino)-5,6,7,7a-tetrahydro-3aH-pyrano[3,2-d]thiazole-6,7-diol]
